From publication PMC6259569, “Pancreatic Lipase Inhibition by C-Glycosidic Flavones Isolated from Eremochloa ophiuroides” (Molecules, 2010)

The compounds below were run against T1, porcine pancreatic lipase (Sus scrofa, UniProt P00591) (assay: Pancreatic lipase inhibition assay (p-NPB hydrolysis, OD 405 nm)). Conditions: substrate p-NPB, 37 °C, mean ± S.D. of quadruplicate experiments, read-out: IC50, pancreatic lipase inhibitory activity (concentration that caused a 50% reduction in enzyme activity).
T1 construct: purchased Sigma, St. Louis, MO
T1 sequence (P00591 1-450): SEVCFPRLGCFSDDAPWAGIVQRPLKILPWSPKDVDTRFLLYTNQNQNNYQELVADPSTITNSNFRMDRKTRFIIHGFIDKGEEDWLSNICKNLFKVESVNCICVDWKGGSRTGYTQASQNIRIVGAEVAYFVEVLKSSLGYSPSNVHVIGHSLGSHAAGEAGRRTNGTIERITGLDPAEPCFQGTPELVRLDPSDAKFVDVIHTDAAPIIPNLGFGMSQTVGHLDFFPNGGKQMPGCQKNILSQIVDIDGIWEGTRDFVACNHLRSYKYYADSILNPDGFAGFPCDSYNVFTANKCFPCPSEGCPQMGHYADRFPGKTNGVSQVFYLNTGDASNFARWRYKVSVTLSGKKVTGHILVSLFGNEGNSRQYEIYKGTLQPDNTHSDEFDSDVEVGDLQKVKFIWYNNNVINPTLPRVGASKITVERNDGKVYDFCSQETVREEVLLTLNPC
Type: biochemical
Protocol: The ability of the compounds to inhibit porcine pancreatic lipase was evaluated using previously reported methods with a minor modification. Briefly, an enzyme buffer was prepared by the addition of 30 μL (10 units) of a solution of porcine pancreatic lipase (Sigma, St. Louis, MO) in10 mM MOPS (morpholinepropanesulphonic acid), and 1 mM EDTA, pH 6.8 to 850 μL of Tris buffer (100 mM Tris-HC1 and 5 mM CaCl2, pH 7.0). […] Pancreatic lipase activity was determined by measuring the hydrolysis of p-NPB to p-nitrophenol at 405 nm using an ELISA reader (Tecan, Infinite F200, Austria). Inhibition of lipase activity was expressed as the percentage decrease in the OD when porcine pancreatic lipase was incubated with the test compounds.
`COC(=O)[C@]1(O)C[C@@H](O)[C@@H](O)[C@H](OC(=O)/C=C/c2ccc(O)c(O)c2)C1` [Compound 8, methyl chlorogenate] showed an IC50 of 33.6 ± 2 µM. For `O=c1cc(-c2ccc(O)c(O)c2)oc2cc(O)c([C@@H]3O[C@H](CO)[C@@H](O)[C@H](O)[C@H]3O)c(O)c12` [Compound 3, isoorientin], the IC50 was 44.6 ± 1.3 µM. For `C[C@H]1O[C@@H](c2c(O)cc3oc(-c4ccc(O)c(O)c4)cc(=O)c3c2O)C[C@H](O)[C@H]1O` [Compound 1, luteolin 6-C-β-D-boivinopyranoside], the IC50 was 50.5 ± 3.9 µM. `O=C(/C=C/c1ccc(O)c(O)c1)O[C@@H]1C[C@](O)(C(=O)O)C[C@@H](O)[C@H]1O` [Compound 7, chlorogenic acid] gave an IC50 greater than 200 µM. With `O=c1cc(-c2ccc(O)c(O)c2)oc2cc(O)cc(O)c12` [Compound 6, luteolin] the IC50 was greater than 200 µM. With `CC1OC(OC2C(c3c(O)cc4oc(-c5ccc(O)c(O)c5)cc(=O)c4c3O)OC(CO)C(O)C2O)C(O)C(O)C1O` [Compound 5, isoorientin 2-O-α-L-rhamnoside] the IC50 was 18.5 ± 2.6 µM. `O=C(O)/C=C/c1ccc(O)c(O)c1` [Compound 9, caffeic acid] was tested, and the IC50 was greater than 200 µM. `O=c1cc(-c2ccc(O)c(O)c2)oc2c([C@@H]3O[C@H](CO)[C@@H](O)[C@H](O)[C@H]3O)c(O)cc(O)c12` [Compound 2, orientin] was tested, and the IC50 was 31.6 ± 2.7 µM.
